Results as given in patent publication US20240174671A1, “New 2,3-Dihydro-1H-pyrrolo[3,2-b]pyridine Derivatives as Sigma Ligands” (ACONDICIONAMIENTO TARRASENSE, priority 2021, published 2024).
Read-outs that look alike come from different tables or passages of the source.

Key:
[1] = biological target: T1, human σ2/TMEM97 receptor (Homo sapiens, UniProt Q5BJF2); assay: Binding assay to human σ2/TMEM97 receptor ([3H]-DTG); conditions: transfected HEK-293 membranes, 10 nM [3H]-DTG, 25° C., 120 minutes; read-out: Binding σ-[…] (binding to σ2-receptor expressed as Ki)
T1 construct: expressed in transfected cells; host or cells: HEK-293
T1 sequence (Q5BJF2 whole entry): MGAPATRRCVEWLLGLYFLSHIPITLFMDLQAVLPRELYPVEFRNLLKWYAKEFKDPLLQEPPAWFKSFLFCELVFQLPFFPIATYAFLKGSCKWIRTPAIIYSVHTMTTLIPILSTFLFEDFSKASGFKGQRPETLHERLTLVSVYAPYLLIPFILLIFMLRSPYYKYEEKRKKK
How it was run: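 Membranes from transfected HEK-293 cells incubated with 10 nM [3H]-DTG in 50 mM Tris-HCl pH 8.0, 120 min at 25 °C; non-specific binding defined with 10 μM haloperidol. Bound radioactivity counted after filtration; compounds tested as % inhibition at 1 or 10 μM or at five concentrations for Ki.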

[2] = biological target: T2, human σ1 receptor (Homo sapiens, UniProt Q99720); assay: Human σ1 receptor radioligand assay ([3H](+)-pentazocine); format: binding
T2 construct: expressed in transfected cells; host or cells: HEK-293
T2 sequence (Q99720 whole entry): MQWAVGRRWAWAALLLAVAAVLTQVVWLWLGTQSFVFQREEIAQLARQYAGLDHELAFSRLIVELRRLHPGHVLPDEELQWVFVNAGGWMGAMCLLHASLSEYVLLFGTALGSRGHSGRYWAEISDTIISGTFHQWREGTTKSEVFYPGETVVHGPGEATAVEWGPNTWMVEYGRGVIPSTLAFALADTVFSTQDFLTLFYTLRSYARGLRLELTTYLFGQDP
How it was run: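 Binding used [3H](+)-pentazocine, 120 min at 37° C, with non-specific binding defined by 10 μM haloperidol. Bound radioligand was collected by filtration, washed with ice-cold 10 mM Tris-HCl pH 7.4 and counted by scintillation.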

[3] = transfected HEK-293 membranes, 5 nM [3H](+)-pentazocine, 37° C., 120 minutes, read-out: Binding σ-[…] (binding to σ1-receptor expressed as Ki)

Row | Structure (SMILES) | Ki [1] [nM] | Ki [2, 3] [nM] | Ki [2] [nM]
1 | Cc1ccc2c(n1)C(C)(C)CN2C(=O)N(C)C[C@@H](c1ccccc1)N(C)C [Example 8, (R)—N-(2-(dimethylamino)-2-phenylethyl)-N,3,3,5-tetramethyl-2,3-dihydro-1H-pyrrolo[3,2-b]pyridine-1-carboxamide] | > 1000 | 500 to 1000 | 
2 | Cc1ccc2c(n1)C(C)(C)CN2C(=O)[C@H]1C[C@H](NCc2ccccc2)C1 [Example 134, ((1r,3r)-3-(benzylamino)cyclobutyl)(3,3,5-trimethyl-2,3-dihydro-1H-pyrrolo[3,2-b]pyridin-1-yl)methanone] | > 1000 | 100 to 500 | 
3 | Cc1ccc2c(n1)C(C)(C)CN2C(=O)N1CCC2(CCN(Cc3ccncc3)CC2)C1 [Example 99, (8-(pyridin-4-ylmethyl)-2,8-diazaspiro[4.5]decan-2-yl)(3,3,5-trimethyl-2,3-dihydro-1H-pyrrolo[3,2-b]pyridin-1-yl)methanone] | < 100 | > 1000 | 
4 | CC(C)CCN[C@H]1CCCCN(C(=O)N2CCc3ncccc32)C1 [Example 121, (S)-(2,3-dihydro-1H-pyrrolo[3,2-b]pyridin-1-yl)(3-(isopentylamino)azepan-1-yl)methanone] | 100 to 500 | 100 to 500 | 
5 | Cc1ccc2c(n1)C(C)(C)CN2C(=O)N1CCC2(CCN(Cc3cccnc3)CC2)C1 [Example 98, (8-(pyridin-3-ylmethyl)-2,8-diazaspiro[4.5]decan-2-yl)(3,3,5-trimethyl-2,3-dihydro-1H-pyrrolo[3,2-b]pyridin-1-yl)methanone] | < 100 | > 1000 | 
6 | COc1ccc(C(CNC(=O)N2CC(C)(C)c3nc(C)ccc32)N(C)C)cc1 (stereo not shown) [Example 13, N-(2-(dimethylamino)-2-(4-methoxyphenyl)ethyl)-3,3,5-trimethyl-2,3-dihydro-1H-pyrrolo[3,2-b]pyridine-1-carboxamide] | > 1000 |  | < 100
7 | CCOCCN1CCC(NC(=O)N2CC(C)(C)c3nc(C)ccc32)CC1 [Example 28, N-(1-(2-ethoxyethyl)piperidin-4-yl)-3,3,5-trimethyl-2,3-dihydro-1H-pyrrolo[3,2-b]pyridine-1-carboxamide] | > 1000 | 100 to 500 | 
8 | Cc1ccc2c(n1)C(C)(C)CN2C(=O)NC1CCN(CCC(C)C)CC1 [Example 25, N-(1-isopentylpiperidin-4-yl)-3,3,5-trimethyl-2,3-dihydro-1H-pyrrolo[3,2-b]pyridine-1-carboxamide] | 100 to 500 | < 100 | 
9 | Cc1ccc2c(n1)C(C)(C)CN2C(=O)N1CCC[C@H](N(C)CCc2ccccc2)C1 [Example 54, (S)-(3-(methyl(phenethyl)amino)piperidin-1-yl)(3,3,5-trimethyl-2,3-dihydro-1H-pyrrolo[3,2-b]pyridin-1-yl)methanone] | < 100 |  | 100 to 500
10 | Cc1ccc2c(n1)C(C)(C)CN2C(=O)N1CCC(NCc2ccccc2)CC1 [Example 115, (4-(benzylamino)piperidin-1-yl)(3,3,5-trimethyl-2,3-dihydro-1H-pyrrolo[3,2-b]pyridin-1-yl)methanone] | 100 to 500 | > 1000 | 
11 | Cc1ccc2c(n1)C(C)(C)CN2C(=O)N1CCN(Cc2ccccc2)CC1 [Example 10, (4-benzylpiperazin-1-yl)(3,3,5-trimethyl-2,3-dihydro-1H-pyrrolo[3,2-b]pyridin-1-yl)methanone] | > 1000 | 100 to 500 | 

Second part, led by results:

Row | Ki [1] [nM] | Ki [2, 3] [nM] | Structure (SMILES) | Ki [2] [nM]
12 | 100 to 500 | < 100 | CC(C)CCN(C)[C@H]1CCCCN(C(=O)N2CCc3ncccc32)C1 [Example 122, (S)-(2,3-dihydro-1H-pyrrolo[3,2-b]pyridin-1-yl)(3-(isopentyl(methyl)amino)azepan-1-yl)methanone] | 
13 | < 100 | < 100 | CN(Cc1ccccc1)[C@H]1CC[C@H](C(=O)N2CC(C)(C)c3ncccc32)CC1 [Example 138, ((1r,4r)-4-(benzyl(methyl)amino)cyclohexyl)(3,3-dimethyl-2,3-dihydro-1H-pyrrolo[3,2-b]pyridin-1-yl)methanone] | 
14 | < 100 | 100 to 500 | Cc1ccc2c(n1)C(C)(C)CN2C(=O)N1CCC(N(C)Cc2ccc(C#N)cc2)CC1 [Example 117, 4-((methyl(1-(3,3,5-trimethyl-2,3-dihydro-1H-pyrrolo[3,2-t]pyridine-1-carbonyl)piperidin-4-yl)amino)methyl)benzonitrile] | 
15 | < 100 | 100 to 500 | CN(CCc1ccccc1)C1CCN(C(=O)N2CC(C)(C)c3ncccc32)CC1 [Example 52, (3,3-dimethyl-2,3-dihydro-1H-pyrrolo[3,2-b]pyridin-1-yl)(4-(methyl(phenethyl)amino)piperidin-1-yl)methanone] | 
16 | < 100 | < 100 | Cc1ccc2c(n1)C(C)(C)CN2C(=O)[C@H]1CC[C@H](N(C)Cc2ccc(F)cc2F)CC1 [Example 172, ((1r,4r)-4-((2,4-difluorobenzyl)(methyl)amino)cyclohexyl)(3,3,5-trimethyl-2,3-dihydro-1H-pyrrolo[3,2-b]pyridin-1-yl)methanone] | 
17 | < 100 | > 1000 | COc1cccc(CN2CCC3(CC2)CCN(C(=O)N2CC(C)(C)c4nc(C)ccc42)C3)c1 [Example 95, (8-(3-methoxybenzyl)-2,8-diazaspiro[4.5]decan-2-yl)(3,3,5-trimethyl-2,3-dihydro-1H-pyrrolo[3,2-b]pyridin-1-yl)methanone] | 
18 | > 1000 | < 100 | Cc1ccc2c(n1)C(C)(C)CN2C(=O)NC[C@@H](c1ccc(F)cc1)N(C)C [Example 33, (R)—N-(2-(dimethylamino)-2-(4-fluorophenyl)ethyl)-3,3,5-trimethyl-2,3-dihydro-1H-pyrrolo[3,2-b]pyridine-1-carboxamide] | 
19 | < 100 | > 1000 | Cc1ccc2c(n1)C(C)(C)CN2C(=O)N1CCC(N(C)Cc2cccc(C#N)c2)CC1 [Example 118, 3-((methyl(1-(3,3,5-trimethyl-2,3-dihydro-1H-pyrrolo[3,2-t]pyridine-1-carbonyl)piperidin-4-yl)amino)methyl)benzonitrile] | 
20 | < 100 | < 100 | Cc1ccc2c(n1)C(C)(C)CN2C(=O)[C@H]1CC[C@H](N(C)Cc2cc(F)cc(F)c2)CC1 [Example 168, ((1r,4r)-4-((3,5-difluorobenzyl)(methyl)amino)cyclohexyl)(3,3,5-trimethyl-2,3-dihydro-1H-pyrrolo[3,2-b]pyridin-1-yl)methanone] | 
21 | < 100 | 100 to 500 | Cc1ccc2c(n1)C(C)(C)CN2C(=O)[C@H]1CC[C@H](N(C)Cc2ccnc(C(F)(F)F)c2)CC1 [Example 177, ((1r,4r)-4-(methyl((2-(trifluoromethyl)pyridin-4-yl)methyl)amino)cyclohexyl)(3,3,5-trimethyl-2,3-dihydro-1H-pyrrolo[3,2-b]pyridin-1-yl)methanone] | 
22 | < 100 | 100 to 500 | CN(Cc1ccccc1)C1CCN(C(=O)N2CC(C)(C)c3ncccc32)CC1 [Example 29, (4-(benzyl(methyl)amino)piperidin-1-yl)(3,3-dimethyl-2,3-dihydro-1H-pyrrolo[3,2-b]pyridin-1-yl)methanone] | 
23 | 100 to 500 | > 1000 | CN(Cc1cccc(C#N)c1)C1CCN(C(=O)N2CC(C)(C)c3ncccc32)CC1 [Example 83, 3-(((1-(3,3-dimethyl-2,3-dihydro-1H-pyrrolo[3,2-b]pyridine-1-carbonyl)piperidin-4-yl)(methyl)amino)methyl)benzonitrile] | 
